Measurements from PMC6120666 (The EMBO Journal, 2018).

Key:
Assay in all cases: Drug affinity chromatography with c-ponatinib and LC-MS/MS (ponatinib interactome)
Format in all cases: binding
[1] = target: T1, proteins of U2OS cell lysate (Homo sapiens, UniProt Q14566); settings: MCM6, DNA replication licensing factor MCM6
T1 construct: Proteins enriched by c-ponatinib from U2OS cell lysate; endogenous in cells; host or cells: U2OS cell lysate
Outline: (§1)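 Proteins were identified by nano-UPLC–MS/MS after elution with formic acid and trypsin digestion. They were captured from U2OS lysate (2 mg protein per pulldown, NP-40 buffer) on amine-coupled NHS beads during a 2 h incubation at 4 °C.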

[2] = target: T2, proteins of U2OS cell lysate (Homo sapiens, UniProt P60953); settings: CDC42, Cell division control protein 42 homolog
T2 construct: Proteins enriched by c-ponatinib from U2OS cell lysate; endogenous in cells; host or cells: U2OS cell lysate
Outline: as §1

[3] = target: T3, proteins of U2OS cell lysate (Homo sapiens, UniProt Q9ULV4); settings: CORO1C, Coronin-1C
T3 construct: Proteins enriched by c-ponatinib from U2OS cell lysate; endogenous in cells; host or cells: U2OS cell lysate
Outline: as §1

[4] = target: T4, proteins of U2OS cell lysate (Homo sapiens, UniProt Q15233); settings: NONO, Non-POU domain-containing octamer-binding protein
T4 construct: Proteins enriched by c-ponatinib from U2OS cell lysate; endogenous in cells; host or cells: U2OS cell lysate
Outline: as §1

[5] = target: T5, proteins of U2OS cell lysate (Homo sapiens, UniProt Q13561); settings: DCTN2, Dynactin subunit 2
T5 construct: Proteins enriched by c-ponatinib from U2OS cell lysate; endogenous in cells; host or cells: U2OS cell lysate
Outline: as §1

[6] = target: T6, proteins of U2OS cell lysate (Homo sapiens, UniProt P78527); settings: PRKDC, DNA-dependent protein kinase catalytic subunit
T6 construct: Proteins enriched by c-ponatinib from U2OS cell lysate; endogenous in cells; host or cells: U2OS cell lysate
Outline: as §1

[7] = target: T7, proteins of U2OS cell lysate (Homo sapiens, UniProt Q9Y4K4); settings: MAP4K5, Mitogen-activated protein kinase kinase kinase kinase 5
T7 construct: Proteins enriched by c-ponatinib from U2OS cell lysate; endogenous in cells; host or cells: U2OS cell lysate
Outline: as §1

[8] = target: T8, proteins of U2OS cell lysate (Homo sapiens, UniProt Q02218); settings: OGDH;OGDHL, 2-oxoglutarate dehydrogenase, mitochondrial
T8 construct: Proteins enriched by c-ponatinib from U2OS cell lysate; endogenous in cells; host or cells: U2OS cell lysate
Outline: as §1

[9] = target: T9, proteins of U2OS cell lysate (Homo sapiens, UniProt Q86UP2); settings: KTN1, Kinectin
T9 construct: Proteins enriched by c-ponatinib from U2OS cell lysate; endogenous in cells; host or cells: U2OS cell lysate
Outline: as §1

[10] = target: T10, proteins of U2OS cell lysate (Homo sapiens, UniProt P16083); settings: NQO2, Ribosyldihydronicotinamide dehydrogenase [quinone]
T10 construct: Proteins enriched by c-ponatinib from U2OS cell lysate; endogenous in cells; host or cells: U2OS cell lysate
Outline: as §1

[11] = target: T11, proteins of U2OS cell lysate (Homo sapiens, UniProt Q15021); settings: NCAPD2, Condensin complex subunit 1
T11 construct: Proteins enriched by c-ponatinib from U2OS cell lysate; endogenous in cells; host or cells: U2OS cell lysate
Outline: as §1

[12] = target: T12, proteins of U2OS cell lysate (Homo sapiens, UniProt O75935); settings: DCTN3, Dynactin subunit 3
T12 construct: Proteins enriched by c-ponatinib from U2OS cell lysate; endogenous in cells; host or cells: U2OS cell lysate
Outline: as §1

[13] = target: T13, proteins of U2OS cell lysate (Homo sapiens, UniProt P27816); settings: MAP4, Microtubule-associated protein 4
T13 construct: Proteins enriched by c-ponatinib from U2OS cell lysate; endogenous in cells; host or cells: U2OS cell lysate
Outline: as §1

[14] = target: T14, proteins of U2OS cell lysate (Homo sapiens, UniProt Q09666); settings: AHNAK, Neuroblast differentiation-associated protein AHNAK
T14 construct: Proteins enriched by c-ponatinib from U2OS cell lysate; endogenous in cells; host or cells: U2OS cell lysate
Outline: as §1

[15] = target: T15, proteins of U2OS cell lysate (Homo sapiens, UniProt P06576); settings: ATP5B, ATP synthase subunit beta, mitochondrial
T15 construct: Proteins enriched by c-ponatinib from U2OS cell lysate; endogenous in cells; host or cells: U2OS cell lysate
Outline: as §1

[16] = target: T16, proteins of U2OS cell lysate (Homo sapiens, UniProt Q9NYJ8); settings: TAB2, TGF-beta-activated kinase 1 and MAP3K7-binding protein 2
T16 construct: Proteins enriched by c-ponatinib from U2OS cell lysate; endogenous in cells; host or cells: U2OS cell lysate
Outline: as §1

[17] = target: T17, proteins of U2OS cell lysate (Homo sapiens, UniProt P08238); settings: HSP90AB1, Heat shock protein HSP 90-beta
T17 construct: Proteins enriched by c-ponatinib from U2OS cell lysate; endogenous in cells; host or cells: U2OS cell lysate
Outline: as §1

[18] = target: T18, proteins of U2OS cell lysate (Homo sapiens, UniProt P62826); settings: captured protein RAN, Rank 147
T18 construct: Proteins enriched by c-ponatinib from U2OS cell lysate; endogenous in cells; host or cells: U2OS cell lysate
Outline: as §1

[19] = target: T19, proteins of U2OS cell lysate (Homo sapiens, UniProt Q9UHX1); settings: captured protein PUF60, Rank 203
T19 construct: Proteins enriched by c-ponatinib from U2OS cell lysate; endogenous in cells; host or cells: U2OS cell lysate
Outline: as §1

T4 sequence (Q15233 whole entry, the tested form may be a part): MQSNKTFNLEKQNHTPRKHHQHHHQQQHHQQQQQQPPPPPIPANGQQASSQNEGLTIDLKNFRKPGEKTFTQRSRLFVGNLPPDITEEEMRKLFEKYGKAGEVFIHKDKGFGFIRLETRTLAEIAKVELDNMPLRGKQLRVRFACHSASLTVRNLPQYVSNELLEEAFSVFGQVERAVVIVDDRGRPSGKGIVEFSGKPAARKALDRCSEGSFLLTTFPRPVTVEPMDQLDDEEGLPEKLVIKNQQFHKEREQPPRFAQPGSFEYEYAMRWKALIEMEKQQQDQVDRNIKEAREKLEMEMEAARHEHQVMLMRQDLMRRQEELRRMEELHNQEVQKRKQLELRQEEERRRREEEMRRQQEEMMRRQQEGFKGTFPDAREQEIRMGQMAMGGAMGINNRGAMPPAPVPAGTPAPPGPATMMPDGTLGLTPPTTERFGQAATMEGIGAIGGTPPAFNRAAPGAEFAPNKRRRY
T2 sequence (P60953 whole entry): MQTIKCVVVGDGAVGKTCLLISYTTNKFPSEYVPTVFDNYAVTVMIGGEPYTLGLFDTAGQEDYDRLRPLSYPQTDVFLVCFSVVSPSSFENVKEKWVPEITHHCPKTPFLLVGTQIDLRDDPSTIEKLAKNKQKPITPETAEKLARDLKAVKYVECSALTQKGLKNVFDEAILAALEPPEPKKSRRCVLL
T16 sequence (Q9NYJ8 whole entry): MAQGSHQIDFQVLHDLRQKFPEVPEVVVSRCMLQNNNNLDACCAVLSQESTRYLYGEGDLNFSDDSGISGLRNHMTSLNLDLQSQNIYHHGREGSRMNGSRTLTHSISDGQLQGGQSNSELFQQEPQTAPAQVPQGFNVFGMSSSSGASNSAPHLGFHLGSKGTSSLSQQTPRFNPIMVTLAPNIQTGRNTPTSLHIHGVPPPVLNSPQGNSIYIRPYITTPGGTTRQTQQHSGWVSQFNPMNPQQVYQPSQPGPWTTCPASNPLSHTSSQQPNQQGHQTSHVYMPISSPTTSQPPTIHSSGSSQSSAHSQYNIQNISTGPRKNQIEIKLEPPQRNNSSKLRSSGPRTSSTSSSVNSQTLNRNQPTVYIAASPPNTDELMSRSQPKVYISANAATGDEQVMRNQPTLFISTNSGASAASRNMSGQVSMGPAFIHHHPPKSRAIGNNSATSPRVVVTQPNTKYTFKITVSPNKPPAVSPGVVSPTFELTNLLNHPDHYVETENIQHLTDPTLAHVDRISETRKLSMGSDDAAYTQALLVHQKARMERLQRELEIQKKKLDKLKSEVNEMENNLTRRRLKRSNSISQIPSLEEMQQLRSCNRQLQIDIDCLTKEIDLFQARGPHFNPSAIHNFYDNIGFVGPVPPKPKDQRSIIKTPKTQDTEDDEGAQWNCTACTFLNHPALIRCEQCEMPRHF
T9 sequence (Q86UP2 whole entry): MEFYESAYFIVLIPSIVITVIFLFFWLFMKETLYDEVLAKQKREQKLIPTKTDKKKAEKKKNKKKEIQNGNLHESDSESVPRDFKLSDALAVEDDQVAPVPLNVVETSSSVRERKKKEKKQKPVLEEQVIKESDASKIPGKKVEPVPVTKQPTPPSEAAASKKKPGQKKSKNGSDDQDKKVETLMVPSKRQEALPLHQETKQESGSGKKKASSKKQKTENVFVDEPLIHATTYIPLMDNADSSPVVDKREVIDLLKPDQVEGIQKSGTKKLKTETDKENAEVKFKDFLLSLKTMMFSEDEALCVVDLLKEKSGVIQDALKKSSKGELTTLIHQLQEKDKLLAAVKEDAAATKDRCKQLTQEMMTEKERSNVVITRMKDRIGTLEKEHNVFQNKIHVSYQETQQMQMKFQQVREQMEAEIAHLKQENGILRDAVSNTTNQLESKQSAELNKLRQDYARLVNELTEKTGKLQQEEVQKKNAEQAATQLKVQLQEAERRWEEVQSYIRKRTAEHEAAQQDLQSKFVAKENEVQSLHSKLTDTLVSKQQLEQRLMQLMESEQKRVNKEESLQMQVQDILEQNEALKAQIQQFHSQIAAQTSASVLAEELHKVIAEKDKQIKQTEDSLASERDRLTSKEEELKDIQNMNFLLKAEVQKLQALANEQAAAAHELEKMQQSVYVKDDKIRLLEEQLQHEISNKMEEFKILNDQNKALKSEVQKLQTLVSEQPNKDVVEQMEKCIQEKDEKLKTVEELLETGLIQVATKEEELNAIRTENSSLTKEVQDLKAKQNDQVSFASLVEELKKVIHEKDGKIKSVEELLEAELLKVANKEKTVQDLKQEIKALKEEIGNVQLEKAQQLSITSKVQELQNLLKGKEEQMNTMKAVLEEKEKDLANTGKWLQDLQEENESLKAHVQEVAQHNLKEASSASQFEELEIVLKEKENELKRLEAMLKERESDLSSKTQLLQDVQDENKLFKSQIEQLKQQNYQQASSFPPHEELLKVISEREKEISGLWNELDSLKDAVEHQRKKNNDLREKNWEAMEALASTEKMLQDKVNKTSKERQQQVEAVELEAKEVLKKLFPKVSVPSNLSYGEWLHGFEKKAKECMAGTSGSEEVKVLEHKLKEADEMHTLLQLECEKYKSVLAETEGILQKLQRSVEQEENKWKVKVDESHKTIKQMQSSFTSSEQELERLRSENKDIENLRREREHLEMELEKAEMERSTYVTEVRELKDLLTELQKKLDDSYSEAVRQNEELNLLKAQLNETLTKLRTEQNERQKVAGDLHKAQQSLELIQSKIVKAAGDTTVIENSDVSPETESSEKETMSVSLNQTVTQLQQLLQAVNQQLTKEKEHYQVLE
T11 sequence (Q15021 whole entry): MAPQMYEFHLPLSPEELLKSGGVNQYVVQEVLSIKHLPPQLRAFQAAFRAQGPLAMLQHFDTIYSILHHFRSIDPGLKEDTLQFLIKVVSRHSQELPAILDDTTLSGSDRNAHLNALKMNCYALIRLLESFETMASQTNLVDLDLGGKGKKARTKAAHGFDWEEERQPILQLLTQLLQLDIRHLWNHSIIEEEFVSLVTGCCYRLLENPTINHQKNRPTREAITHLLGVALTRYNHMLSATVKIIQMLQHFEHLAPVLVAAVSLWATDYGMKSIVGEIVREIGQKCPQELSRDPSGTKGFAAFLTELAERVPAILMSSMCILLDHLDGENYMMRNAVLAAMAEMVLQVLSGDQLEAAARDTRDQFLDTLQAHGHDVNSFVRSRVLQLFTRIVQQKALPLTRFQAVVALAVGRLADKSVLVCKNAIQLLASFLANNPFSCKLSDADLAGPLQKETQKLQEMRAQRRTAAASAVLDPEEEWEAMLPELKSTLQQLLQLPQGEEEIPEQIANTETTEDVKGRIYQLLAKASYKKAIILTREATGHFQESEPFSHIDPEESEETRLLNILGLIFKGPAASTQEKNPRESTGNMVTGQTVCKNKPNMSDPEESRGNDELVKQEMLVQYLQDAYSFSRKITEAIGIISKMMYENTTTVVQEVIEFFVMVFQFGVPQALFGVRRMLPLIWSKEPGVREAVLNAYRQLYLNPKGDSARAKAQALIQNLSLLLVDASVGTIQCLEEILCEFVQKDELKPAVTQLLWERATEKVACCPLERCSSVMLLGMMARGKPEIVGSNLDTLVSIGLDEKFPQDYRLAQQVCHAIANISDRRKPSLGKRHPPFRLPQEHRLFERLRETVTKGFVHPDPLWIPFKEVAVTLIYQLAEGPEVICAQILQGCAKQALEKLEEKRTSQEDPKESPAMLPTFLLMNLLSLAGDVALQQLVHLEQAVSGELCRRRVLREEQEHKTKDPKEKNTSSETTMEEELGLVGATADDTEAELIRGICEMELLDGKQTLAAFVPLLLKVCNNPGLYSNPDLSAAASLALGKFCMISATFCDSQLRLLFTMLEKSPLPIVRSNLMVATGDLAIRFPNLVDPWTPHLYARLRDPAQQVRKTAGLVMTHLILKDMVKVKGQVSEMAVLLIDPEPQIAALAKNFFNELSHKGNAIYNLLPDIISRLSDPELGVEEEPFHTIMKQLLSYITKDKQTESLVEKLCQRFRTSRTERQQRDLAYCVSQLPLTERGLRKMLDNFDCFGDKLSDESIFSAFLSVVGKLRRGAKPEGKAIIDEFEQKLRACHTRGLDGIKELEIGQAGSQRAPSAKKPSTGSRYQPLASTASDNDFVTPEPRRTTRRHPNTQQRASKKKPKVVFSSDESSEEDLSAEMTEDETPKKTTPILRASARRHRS
T7 sequence (Q9Y4K4 whole entry): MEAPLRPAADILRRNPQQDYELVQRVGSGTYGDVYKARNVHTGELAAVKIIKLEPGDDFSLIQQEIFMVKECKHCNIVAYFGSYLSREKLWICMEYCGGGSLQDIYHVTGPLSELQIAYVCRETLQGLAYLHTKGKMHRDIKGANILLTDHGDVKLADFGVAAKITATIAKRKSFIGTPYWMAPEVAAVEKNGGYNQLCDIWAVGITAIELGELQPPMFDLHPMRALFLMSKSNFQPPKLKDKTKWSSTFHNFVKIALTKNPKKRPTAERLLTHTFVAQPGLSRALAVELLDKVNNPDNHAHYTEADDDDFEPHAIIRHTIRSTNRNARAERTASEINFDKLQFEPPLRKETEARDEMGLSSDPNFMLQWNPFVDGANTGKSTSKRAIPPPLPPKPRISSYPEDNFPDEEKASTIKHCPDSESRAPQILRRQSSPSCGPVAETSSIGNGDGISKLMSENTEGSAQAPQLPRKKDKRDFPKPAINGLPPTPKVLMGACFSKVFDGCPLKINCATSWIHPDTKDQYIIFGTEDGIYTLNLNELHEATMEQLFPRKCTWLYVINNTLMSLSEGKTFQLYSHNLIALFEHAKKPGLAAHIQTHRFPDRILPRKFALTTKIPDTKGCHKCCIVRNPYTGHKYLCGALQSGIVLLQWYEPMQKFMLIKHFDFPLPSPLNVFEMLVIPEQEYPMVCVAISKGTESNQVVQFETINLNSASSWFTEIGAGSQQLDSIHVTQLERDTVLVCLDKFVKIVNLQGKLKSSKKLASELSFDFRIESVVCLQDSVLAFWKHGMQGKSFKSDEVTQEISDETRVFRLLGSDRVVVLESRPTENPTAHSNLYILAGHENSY

SMILES | Average LFQ PON_WT [1] | Average LFQ PON_WT [2] | Average LFQ PON_WT [3] | Average LFQ PON_WT [4] | Average LFQ PON_WT [5] | Average LFQ PON_WT [6] | Average LFQ PON_WT [7] | Average LFQ PON_WT [8] | Average LFQ PON_WT [9] | Average LFQ PON_WT [10] | Average LFQ PON_WT [11] | Average LFQ PON_WT [12] | Average LFQ PON_WT [13] | Average LFQ PON_WT [14] | Average LFQ PON_WT [15] | Average LFQ PON_WT [16] | Average LFQ PON_WT [17] | Average LFQ intensity [18] | Average LFQ intensity [19]
Cc1ccc(C(=O)Nc2ccc(CN3CCN(C)CC3)c(C(F)(F)F)c2)cc1C#Cc1cnc2cccnn12 [PON] | 19.2204 | 20.531 | 24.6024 | 20.9839 | 23.2725 | 25.5794 | 19.9263 | 22.0277 | 24.25 | 24.6177 | 21.331 | 20.8844 | 23.7532 | 26.25 | 26.0565 | 24.3605 | 24.5074 |  | 
Cc1ccc(C(=O)Nc2ccc(CN3CCN(CCCN)CC3)c(C(F)(F)F)c2)cc1C#Cc1cnc2cccnn12 [c-ponatinib, reference compound] |  |  |  |  |  |  |  |  |  |  |  |  |  |  |  |  |  | 22.7198 | 21.804
